Data taken from PubChem BioAssay AID1963845 (Molecular Pharmacology Branch, DTP, NCI, 2024).

Tested on: 429239-143-T-J1-PDC complex spheroid viability
Assay: Anticancer human tumor 429239-143-T-J1-PDC patient-derived small cell lung carcinoma cell line growth inhibition [POLQ]
Settings: for IC50: curve of first compound; for viability, T/C: stronger effect = lower value
Protocol: Multicellular complex tumor spheroid response to Polymerase (POL) inhibitors (novobiocin, ART-558, RP6685) in combination with a variety of drugs and investigational agents in selected tumor cell lines
The POL inhibitors (novobiocin, ART-558, and RP6685) were evaluated both individually and in combination with standard of care and investigational anticancer small molecules within a complex spheroid model of solid tumors. . Complex spheroids include a stromal component modeled by human endothelial cells (HUVEC) and fibroblasts modeled by human mesenchymal stem cells (MSCs). The concentration ranges selected for each drug and investigational agent were based upon clinically achievable concentrations if the clinical Cmax of the agent was known.
Compounds. The drugs and investigational agents: novobiocin (NSC847541), ART-558 (NSC835418), RP-6685 (NSC848927), peposertib (NSC802822), ceralasertib (NSC780249), elimusertib (NSC800525), camonsertib (NSC841442), AZD-1390 (NSC803789), olaparib (NSC753686), talazoparib (NSC767125), rucaparib (NSC756644), sotorasib (NSC818433), MRTX-1133 (NSC836407), SN-38 (NSC673596), topotecan (NSC609699), epotoside (NSC141540), doxorubicin (NSC123127), gemcitabine (NSC613327), 5-fluorouracil (NSC19893), paclitaxel (NSC125973), vemurafenib (NSC761431), MSA-2 (NSC828583), SN-011 (NSC837082), adavosertib (NSC754352), prexasertib (NSC758257), carboplatin (NSC241240) and oxaliplatin (NSC266046), were obtained from the National Cancer Institute (NCI) Developmental Therapeutics Program Chemical Repository (21). The FDA-approved anticancer drug set is available from the Developmental Therapeutics Program at https://dtp.cancer.gov/organization/dscb/obtaining/. […] The stock solutions were prepared in dimethyl sulfoxide (DMSO, Sigma-Aldrich, St. Louis, MO, cat. D2650), except for the platinum compounds which were prepared in saline (Quality Biological, Gaithersburg, MD, cat. 114-055-101), at 800-fold the tested concentration and stored at -70 degrees C prior to their use. All drugs and investigational agents were tested over a range starting from a high concentration at or near the clinical Cmax and decreasing in half-log increments. If the clinical Cmax for an agent had not been determined, the highest concentration tested was 10 microM, except for SN-38, which was tested at a high concentration of 1 microM.
Cell Culture. All cells were maintained in an incubator at 37 degrees C and 5% CO2 with 95% humidity. The PDC lines were cultured according to standard operating procedures established by the NCI PDMR (https://pdmr.cancer.gov). Table 3 of the manuscript, lists the cell lines along with the number of the three cell types plated to form the mct-spheroids and media for tumor cell growth. After thawing, all PDC lines, except 997537-175-T-J1-PDC and 415267-285-R-J2-PDC, were cultured in Matrigel-coated flasks prepared with a working solution of 1X Ham's F-12 nutrient mix, without supplementation (Thermo Fisher Scientific, cat. 11765054), 100 U/mL penicillin-streptomycin (Thermo Fisher Scientific, cat. 15140122), and 2.5% Matrigel (Corning Inc., Corning, NY, cat. 354248) for the first three passages. The two PDC lines 997537-175-T-J1-PDC and 415267-285-R-J2-PDC were cultured on uncoated flasks. The 857933-349-R-J2-PDC line was cultured in 6C/Colon 1B media containing advanced DMEM/F-12 (Thermo Fisher Scientific, cat. 12634028), 10 mM HEPES (Thermo Fisher Scientific, cat. 15630080), 1X GlutaMAX supplement (Thermo Fisher Scientific, cat. 35050061), 0.1 mg/mL primocin (InvivoGen, San Diego, CA, cat. ant-pm-2), 10% defined fetal bovine serum, heat inactivated (HyClone Laboratories Inc., Logan, UT, cat. SH30070.03HI), 50% L-WRN conditioned media (ATCC, cat. CRL-3276), 1.25 mM N-Acetyl-L-cysteine (Sigma-Aldrich, cat. A9165), 10 mM nicotinamide (Sigma-Aldrich, cat. N0636), 1X B-27 supplement (Thermo Fisher Scientific, cat. 17504044), 1X N-2 supplement (Thermo Fisher Scientific, cat. […]

[1] = second compound 0.0316 µM, first compound 0.0316 µM
[2] = second compound 0.0316 µM, first compound 0.1 µM
[3] = second compound 0.0316 µM, first compound 0.316 µM
[4] = second compound 0.0316 µM, first compound 1 µM
[5] = second compound 0.0316 µM, first compound 3.16 µM
[6] = second compound 0.0316 µM, first compound 10 µM
[7] = second compound 0.1 µM, first compound 0.0316 µM
[8] = second compound 0.1 µM, first compound 0.1 µM
[9] = second compound 0.1 µM, first compound 0.316 µM
[10] = second compound 0.1 µM, first compound 1 µM
[11] = second compound 0.1 µM, first compound 3.16 µM
[12] = second compound 0.1 µM, first compound 10 µM
[13] = second compound 0.316 µM, first compound 0.0316 µM
[14] = second compound 0.316 µM, first compound 0.1 µM
[15] = second compound 0.316 µM, first compound 0.316 µM
[16] = second compound 0.316 µM, first compound 1 µM
[17] = second compound 0.316 µM, first compound 3.16 µM
[18] = second compound 0.316 µM, first compound 10 µM
[19] = second compound 1 µM, first compound 0.0316 µM
[20] = second compound 1 µM, first compound 0.1 µM
[21] = second compound 1 µM, first compound 0.316 µM
[22] = second compound 1 µM, first compound 1 µM
[23] = second compound 1 µM, first compound 3.16 µM
[24] = second compound 1 µM, first compound 10 µM
[25] = second compound 3.16 µM, first compound 0.0316 µM
[26] = second compound 3.16 µM, first compound 0.1 µM
[27] = second compound 3.16 µM, first compound 0.316 µM
[28] = second compound 3.16 µM, first compound 1 µM
[29] = second compound 3.16 µM, first compound 3.16 µM
[30] = second compound 3.16 µM, first compound 10 µM
[31] = second compound 10 µM, first compound 0.0316 µM
[32] = second compound 10 µM, first compound 0.1 µM
[33] = second compound 10 µM, first compound 0.316 µM
[34] = second compound 10 µM, first compound 1 µM
[35] = second compound 10 µM, first compound 3.16 µM
[36] = second compound 10 µM, first compound 10 µM
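Note: luminescence signal used as surrogate measure of viable cells; spheroids exposed to compounds for seven days before readout.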
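Throughout, for viability, T/C: 100% = DMSO vehicle control viability as luminescence relative to vehicle.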

Q: Which results are given for CC(=O)O[C@H]1C(=O)[C@@]2(C)[C@H]([C@H](OC(=O)c3ccccc3)[C@]3(O)C[C@H](OC(=O)[C@H](O)[C@@H](NC(=O)c4ccccc4)c4ccccc4)C(C)=C1C3(C)C)[C@]1(OC(C)=O)CO[C@@H]1C[C@@H]2O + Cc1cccc(N(C)C(=O)C2C(O)CCN2c2nc(C)cc(C(F)(F)F)c2C#N)c1?
A: IC50 (second compound 0.0316 µM): 13.4 nM; IC50 (second compound 0.1 µM): 12.9 nM; IC50 (second compound 0.316 µM): 11.6 nM; IC50 (second compound 1 µM): 14.2 nM; IC50 (second compound 3.16 µM): 13.2 nM; IC50 (second compound 10 µM): 12.5 nM; viability, T/C (second compound 0.0316 µM, first compound 0.00949 µM): 63.2%; viability, T/C (second compound 0.0316 µM, first compound 0.03 µM): 14.9%; viability, T/C (second compound 0.0316 µM, first compound 0.0949 µM): 11.6%; viability, T/C (second compound 0.0316 µM, first compound 0.3 µM): 19.4%; viability, T/C (second compound 0.0316 µM, first compound 0.949 µM): 24.7%; viability, T/C (second compound 0.0316 µM, first compound 3 µM): 27.8%; viability, T/C (second compound 0.1 µM, first compound 0.00949 µM): 60.9%; viability, T/C (second compound 0.1 µM, first compound 0.03 µM): 15.6%; viability, T/C (second compound 0.1 µM, first compound 0.0949 µM): 18.6%; viability, T/C (second compound 0.1 µM, first compound 0.3 µM): 18.5%; viability, T/C (second compound 0.1 µM, first compound 0.949 µM): 23%; viability, T/C (second compound 0.1 µM, first compound 3 µM): 24.6%; viability, T/C (second compound 0.316 µM, first compound 0.00949 µM): 56.6%; viability, T/C (second compound 0.316 µM, first compound 0.03 µM): 17.8%; viability, T/C (second compound 0.316 µM, first compound 0.0949 µM): 12.7%; viability, T/C (second compound 0.316 µM, first compound 0.3 µM): 16.9%; viability, T/C (second compound 0.316 µM, first compound 0.949 µM): 18.8%; viability, T/C (second compound 0.316 µM, first compound 3 µM): 23.9%; viability, T/C (second compound 1 µM, first compound 0.00949 µM): 66.5%; viability, T/C (second compound 1 µM, first compound 0.03 µM): 14.6%; viability, T/C (second compound 1 µM, first compound 0.0949 µM): 17.8%; viability, T/C (second compound 1 µM, first compound 0.3 µM): 17.1%; viability, T/C (second compound 1 µM, first compound 0.949 µM): 22.7%; viability, T/C (second compound 1 µM, first compound 3 µM): 24.7%; viability, T/C (second compound 3.16 µM, first compound 0.00949 µM): 62.5%; viability, T/C (second compound 3.16 µM, first compound 0.03 µM): 17%; viability, T/C (second compound 3.16 µM, first compound 0.0949 µM): 14.6%; viability, T/C (second compound 3.16 µM, first compound 0.3 µM): 17.2%; viability, T/C (second compound 3.16 µM, first compound 0.949 µM): 21.7%; viability, T/C (second compound 3.16 µM, first compound 3 µM): 25.1%; viability, T/C (second compound 10 µM, first compound 0.00949 µM): 61.2%; viability, T/C (second compound 10 µM, first compound 0.03 µM): 12.5%; viability, T/C (second compound 10 µM, first compound 0.0949 µM): 17.8%; viability, T/C (second compound 10 µM, first compound 0.3 µM): 14.6%; viability, T/C (second compound 10 µM, first compound 0.949 µM): 18%; viability, T/C (second compound 10 µM, first compound 3 µM): 16%

Q: What does the source list for CC1COCCN1c1cc(-c2ccnn2C)c2ccnc(-c3ccn[nH]3)c2n1 (stereo unspecified) + Cc1cccc(N(C)C(=O)C2C(O)CCN2c2nc(C)cc(C(F)(F)F)c2C#N)c1?
A: IC50 (second compound 0.0316 µM): 135 nM; IC50 (second compound 0.1 µM): 121 nM; IC50 (second compound 0.316 µM): 128 nM; IC50 (second compound 1 µM): 88.5 nM; IC50 (second compound 3.16 µM): 90.9 nM; IC50 (second compound 10 µM): 106 nM; viability, T/C [1]: 88.1%; viability, T/C [2]: 54.9%; viability, T/C [3]: 34.8%; viability, T/C [4]: 15.2%; viability, T/C [5]: 9.81%; viability, T/C [6]: 10.9%; viability, T/C [7]: 83.7%; viability, T/C [8]: 54.4%; viability, T/C [9]: 26.7%; viability, T/C [10]: 11.2%; viability, T/C [11]: 9.92%; viability, T/C [12]: 10.2%; viability, T/C [13]: 82.1%; viability, T/C [14]: 55.4%; viability, T/C [15]: 29.9%; viability, T/C [16]: 12.9%; viability, T/C [17]: 9.82%; viability, T/C [18]: 8.22%; viability, T/C [19]: 86.3%; viability, T/C [20]: 44.1%; viability, T/C [21]: 28.4%; viability, T/C [22]: 13.8%; viability, T/C [23]: 11.9%; viability, T/C [24]: 9.85%; viability, T/C [25]: 77.9%; viability, T/C [26]: 44.1%; viability, T/C [27]: 35%; viability, T/C [28]: 16.1%; viability, T/C [29]: 11.2%; viability, T/C [30]: 10.4%; viability, T/C [31]: 77.4%; viability, T/C [32]: 50.7%; viability, T/C [33]: 30.7%; viability, T/C [34]: 17.7%; viability, T/C [35]: 11.7%; viability, T/C [36]: 9.99%

Q: Which results are given for COc1cc2cc(C(=O)CCC(=O)O)sc2cc1OC + Cc1cccc(N(C)C(=O)C2C(O)CCN2c2nc(C)cc(C(F)(F)F)c2C#N)c1?
A: IC50 (second compound 0.0316 µM): > 10000 nM; IC50 (second compound 0.1 µM): > 10000 nM; IC50 (second compound 0.316 µM): > 10000 nM; IC50 (second compound 1 µM): > 10000 nM; IC50 (second compound 3.16 µM): > 10000 nM; IC50 (second compound 10 µM): > 10000 nM; viability, T/C [1]: 103%; viability, T/C [2]: 114%; viability, T/C [3]: 97.8%; viability, T/C [4]: 106%; viability, T/C [5]: 109%; viability, T/C [6]: 89.5%; viability, T/C [7]: 96.1%; viability, T/C [8]: 97.9%; viability, T/C [9]: 109%; viability, T/C [10]: 99.4%; viability, T/C [11]: 94.4%; viability, T/C [12]: 101%; viability, T/C [13]: 109%; viability, T/C [14]: 118%; viability, T/C [15]: 99.9%; viability, T/C [16]: 106%; viability, T/C [17]: 96%; viability, T/C [18]: 90.1%; viability, T/C [19]: 99.8%; viability, T/C [20]: 99.1%; viability, T/C [21]: 94.1%; viability, T/C [22]: 115%; viability, T/C [23]: 117%; viability, T/C [24]: 91.2%; viability, T/C [25]: 108%; viability, T/C [26]: 96.3%; viability, T/C [27]: 103%; viability, T/C [28]: 105%; viability, T/C [29]: 115%; viability, T/C [30]: 101%; viability, T/C [31]: 104%; viability, T/C [32]: 91.3%; viability, T/C [33]: 99.3%; viability, T/C [34]: 120%; viability, T/C [35]: 110%; viability, T/C [36]: 97.7%
